The source of these data is US4465668A, “Method for improving intestinal absorption of cephalosporin derivatives” (Asahi Kasei Kogyo Kabushiki Kaisha, priority 1981, dated 1984).

This data set in a line: Absorption test: blood concentration after oral administration to rats. To be noted: rat; for Blood Concentration of Compound (IV) / Blood Concentration of Compound (VI) / Blood Concentration of Compound (IX) / Blood Concentration of Compound (VII) / Blood Concentration of Compound (V) / Blood Concentration of Compound (VIII) / Blood Concentration of Compound (III): suspended in 0.7% CMC; for Blood Concentration of Compound (IV) / Blood Concentration of Compound (VI) / Blood Concentration of Compound (IX) / Blood Concentration of Compound (VII) / Blood Concentration of Compound (V) / Blood Concentration of Compound (VIII) / Blood Concentration of Compound (III) / Blood Concentration of Compound (II): group average; for Blood concentration of Compound (I): suspended in 0.7% CMC aqueous solution, group average (5 animals); for Blood Concentration of Compound (II): dissolved in buffer aqueous solution pH 7. The protocol: The absorption test of the compounds were measured by the following methods.
Male Wistar rats weighing 180-250 g were fed with only water overnight. The next day the rats were orally administered with 50 mg/kg of a test compound which was suspended in a 0.7% CMC aqueous solution. The concentration of the compound in blood of the tested animals (one group consisting of 5 animals) was measured 0.5, 1, 2 and 4 hours after the administration by Bioassay method by using Bacillus subtilis ATCC 6633 strain as an indicator bacteria. In the measurement, an ordinary culture medium was employed, and the preparation of the standard solution and other method were carried out in according to Japanese Antibiotical Pharmaceutical Standards. Further, the concentration of the compound in blood was also measured by high performance liquid chromatography. The blood concentration shown in the examples was an average value of each animal group.
The absorption test of 7-[2-(2-thienyl)-acetoamido]-3-[2-(L-prolyl-L-lysylaminomethyl-1,3,4-thiadiazolyl)-thiomethyl]-3-cephem-4-carboxylic acid formic acid salt was carried out by orally administering the salt which was dissolved in a buffer aqueous solution having the pH of 7. The results are as follows:
The same procedures as described in Example 8 were repeated except that other oligopeptides were employed instead of the α-tert-butyloxycarbonyl-L-prolyl-ε-tert-butyloxycarbonyl-L-lysine. The absorption test of these compounds thus obtained was carried out in the same manner as described in Example 8.

In the case of `CC(=O)OCC1=C(C(=O)O)N2C(=O)[C@@H](NC(=O)CSCCNC(=O)[C@H](CC(C)C)NC(=O)[C@@H](N)Cc3ccccc3)[C@H]2SC1.O=C(O)C(F)(F)F` [Example 19, 7β-(2-L-phenylalanyl-L-leucylamidoethylthioacetoamido)-3-acetoxymethyl-3-cephem-4-carboxylic acid trifluoroacetic acid salt], the “Blood Concentration of Compound (IV)” value is 1070 ng/mL (0.5 hr after oral 50 mg/kg), 210 ng/mL (1 hr after oral 50 mg/kg), 90 ng/mL (2 hrs after oral 50 mg/kg) and < 10 ng/mL (4 hrs after oral 50 mg/kg).
Turning to `CO/N=C(\C(=O)N[C@@H]1C(=O)N2C(C(=O)O)=C(CSc3nnnn3C)CS[C@H]12)c1csc(NC(=O)[C@H](CCCCN)NC(=O)[C@@H](N)CC(C)C)n1.O=CO` [Example 25, 7β-[2-(2-L-leucyl-L-lysylamidothiazol-4-yl)-(Z)-2-methoxyiminoacetoamido]-3-[(1-methyl-1H-tetrazol-5-yl)-thiomethyl]-3-cephem-4-carboxylic acid formic acid salt], the “Blood Concentration of Compound (VI)” value was 2110 ng/mL (0.5 hr after oral 50 mg/kg), 1670 ng/mL (1 hr after oral 50 mg/kg), 1100 ng/mL (2 hrs after oral 50 mg/kg) and < 100 ng/mL (4 hrs after oral 50 mg/kg).
Turning to `Cc1nnc(SCC2=C(C(=O)OCOC(=O)[C@H](CCCCN)NC(=O)[C@@H](N)CC(C)C)N3C(=O)C(NC(=O)Cn4cnnn4)C3SC2)s1.Cl` (stereo partly drawn) [Example 35, 7-[1-(1H)-tetrazolylacetamido]-3-[2-(5-methyl-1,3,4-thiazolyl)-thiomethyl]-3-cephem-4-carboxylic acid L-leucyl-L-lysyloxymethyl ester hydrochloric acid salt], the “Blood Concentration of Compound (IX)” value is, setting by setting: (0.5 hr after oral 50 mg/kg) 5640 ng/mL; (1 hr after oral 50 mg/kg) 3840 ng/mL; (2 hrs after oral 50 mg/kg) 1870 ng/mL; (4 hrs after oral 50 mg/kg) 740 ng/mL.
Take `CO/N=C(\C(=O)N[C@@H]1C(=O)N2C(C(=O)O)=CCS[C@H]12)c1csc(NC(=O)[C@H](Cc2ccccc2)NC(=O)[C@@H](N)CCSC)n1.O=CO` [Example 27, 7β-[2-(2-L-methionyl-L-phenylalanylamidothiazol-4-yl)-(Z)-2-methoxyiminoacetamido]-3-cephem-4-carboxylic acid formic acid salt]: the “Blood Concentration of Compound (VII)” value by setting is: (0.5 hr after oral 50 mg/kg) 2130 ng/mL; (1 hr after oral 50 mg/kg) 1840 ng/mL; (2 hrs after oral 50 mg/kg) 1000 ng/mL; (4 hrs after oral 50 mg/kg) 210 ng/mL.
Regarding `Cn1nnnc1SCC1=C(C(=O)O)N2C(=O)C(NC(=O)[C@H](OC(=O)[C@@H](N)Cc3ccccc3)c3ccccc3)C2SC1.O=CO` (stereo partly drawn) [compound 1, 7-D-(O-L-phenylalanyl)-mandelamido-3-(1-methyl-1H-tetrazol-5-yl-thiomethyl)-3-cephem-4-carboxylic acid formic acid salt, reference compound], the “Blood concentration of Compound (I)” value (0.5 hr after oral 50 mg/kg) was 210 ng/mL, the “Blood concentration of Compound (I)” value (1 hr after oral 50 mg/kg) was determined as 230 ng/mL, the “Blood concentration of Compound (I)” value (2 hrs after oral 50 mg/kg) was determined as 80 ng/mL and the “Blood concentration of Compound (I)” value (4 hrs after oral 50 mg/kg) came out at 20 ng/mL.
With `CO/N=C(\C(=O)N[C@@H]1C(=O)N2C(C(=O)O)=C(COC(C)=O)CS[C@H]12)c1csc(NC(=O)[C@H](Cc2ccccc2)NC(=O)[C@@H](N)CC(C)C)n1.O=CO` [Example 22, 7β-[2-(2-L-leucyl-L-phenylalanylamidothiazol-4-yl)-(Z)-2-methoxyiminoacetoamido]cephalosporanic acid formic acid salt], the “Blood Concentration of Compound (V)” value by setting is: (0.5 hr after oral 50 mg/kg) 1690 ng/mL; (1 hr after oral 50 mg/kg) 1830 ng/mL; (2 hrs after oral 50 mg/kg) 1530 ng/mL; (4 hrs after oral 50 mg/kg) 1030 ng/mL.
With `COC1(NC(=O)CSCC#N)C(=O)N2C(C(=O)OCOC(=O)[C@H](CCCCN)NC(=O)[C@@H](N)CC(C)C)=C(CSc3nnnn3C)CSC21.Cl` (stereo partly drawn) [Example 29, 7β-[(cyanomethyl)thio]acetoamido-7α-methoxy-3-[(1-methyl-1H-tetrazol-5-yl)thio]methyl-3-cephem-4-carboxylic acid L-leucyl-L-lysyloxymethyl ester hydrochloric acid salt], the “Blood Concentration of Compound (VIII)” value runs as follows: (0.5 hr after oral 50 mg/kg) 3140 ng/mL; (1 hr after oral 50 mg/kg) 2370 ng/mL; (2 hrs after oral 50 mg/kg) 1040 ng/mL; (4 hrs after oral 50 mg/kg) 320 ng/mL.
In the case of `Cc1nnc(SCC2=C(C(=O)OCOC(=O)[C@H](CCCCN)NC(=O)[C@@H](N)CC(C)C)N3C(=O)C(NC(=O)Cc4csc(N)n4)C3SC2)s1.Cl` (stereo partly drawn) [Example 15, 7-[2-(2-amino-4-thiazolyl)acetoamido-3-(5-methyl-1,3,4-thiadiazolyl)thiomethyl]-3-cephem-4-carboxylic acid L-leucyl-L-lysyloxymethyl ester hydrochloric acid salt], the “Blood Concentration of Compound (III)” value by setting is: (0.5 hr after oral 50 mg/kg) 1960 ng/mL; (1 hr after oral 50 mg/kg) 2370 ng/mL; (2 hrs after oral 50 mg/kg) 1030 ng/mL; (4 hrs after oral 50 mg/kg) 240 ng/mL.
As to `CC(C)C[C@H](N)C(=O)N[C@@H](Cc1ccccc1)C(=O)OC(C(=O)NC1C(=O)N2C(C(=O)O)=C(CSc3nnnn3C)CS[C@H]12)c1ccccc1.O=CO` (stereo partly drawn) [Example 1, 7-D-(O-L-leucyl-L-phenylalanyl)-mandelamido-3-(1-methyl-1H-tetrazol-5-yl-thiomethyl)-3-cephem-4-carboxylic acid formic acid salt], the “Blood concentration of Compound (I)” value is, setting by setting: (0.5 hr after oral 50 mg/kg) 4510 ng/mL; (1 hr after oral 50 mg/kg) 3700 ng/mL; (2 hrs after oral 50 mg/kg) 1930 ng/mL; (4 hrs after oral 50 mg/kg) 830 ng/mL.
Take `NCCCC[C@H](NC(=O)[C@@H]1CCCN1)C(=O)NCc1nnc(SCC2=C(C(=O)O)N3C(=O)C(NC(=O)Cc4cccs4)C3SC2)s1.O=CO` (stereo partly drawn) [Example 8, 7-[2-(2-thienyl)-acetoamido]-3-[2-(L-prolyl-L-lysylaminomethyl-1,3,4-thiadiazolyl)-thiomethyl]-3-cephem-4-carboxylic acid formic acid salt]: the “Blood Concentration of Compound (II)” value is 2140 ng/mL (0.5 hr after oral 50 mg/kg), 1770 ng/mL (1 hr after oral 50 mg/kg), 1040 ng/mL (2 hrs after oral 50 mg/kg) and 70 ng/mL (4 hrs after oral 50 mg/kg).
